Converted amounts (≈) assume the structure as drawn.
Key:
Assay in all cases: Antibacterial spectrum (MIC), agar dilution
Format in all cases: cell-based
Acinetobacter sp.51-156 = settings: SP.51156, read-out: MIC
Experimental: (§1) In vitro activity was determined by minimum inhibitory concentration in a microorganism spectum by the agar dilution method in Mueller Hinton agar.

C.freundii 43 = settings: Citrobacter freundii, read-out: MIC
Experimental: as §1

C.freundii 902 = settings: Citrobacter freundii, read-out: MIC
Experimental: as §1

E.cloacae 908R = settings: Enterobacter cloacae, read-out: MIC
Experimental: as §1

E.cloacae 908SSi = settings: Enterobacter cloacae, read-out: MIC
Experimental: as §1

E.coli 25922 = settings: Escherichia coli, read-out: MIC
Experimental: as §1

E.faecalis 6 = settings: Enterococcus faecalis, read-out: MIC
Experimental: as §1

H.influenzae 1 = settings: Haemophilus influenzae, read-out: MIC
Experimental: as §1

K.pneumoniae 418 = settings: Klebsiella pneumoniae, read-out: MIC
Experimental: as §1

L.monocytogenes BK23 = settings: Listeria monocytogenes, read-out: MIC
Experimental: as §1

M.catarrhalis RA21 = settings: Moraxella catarrhalis, read-out: MIC
Experimental: as §1

M.morganii 6H-137 = settings: Morganella morganii, 6H137, read-out: MIC
Experimental: as §1

N.meningitidis 69480 = settings: Neisseria meningitidis, read-out: MIC
Experimental: as §1

P.aeruginosa 27853 = settings: Pseudomonas aeruginosa, read-out: MIC
Experimental: as §1

P.mirabilis 2117 = settings: Proteus mirabilis, read-out: MIC
Experimental: as §1

P.vulgaris 1028 = settings: Proteus vulgaris, read-out: MIC
Experimental: as §1

S.agalactiae QK44 = settings: Streptococcus agalactiae, read-out: MIC
Experimental: as §1

S.aureus 6538 = settings: Staphylococcus aureus, read-out: MIC
Experimental: as §1

S.aureus 734 MRSA = settings: Staphylococcus aureus, read-out: MIC
Experimental: as §1

S.marcescens 69438 = settings: Serratia marcescens, read-out: MIC
Experimental: as §1

S.pneumoniae Q19 = settings: Streptococcus pneumoniae, read-out: MIC
Experimental: as §1

S.pyogenes B15 = settings: Streptococcus pyogenes, read-out: MIC
Experimental: as §1

S.viridans group 016 = settings: Streptococcus viridans, read-out: MIC
Experimental: as §1

X.maltophilia 1AC739 = settings: Stenotrophomonas maltophilia, read-out: MIC
Experimental: as §1

Structure (SMILES)	MIC (Acinetobacter sp.51-156) [µg/mL]	MIC (C.freundii 43) [µg/mL]	MIC (C.freundii 902) [µg/mL]	MIC (E.cloacae 908R) [µg/mL]	MIC (E.cloacae 908SSi) [µg/mL]	MIC (E.coli 25922) [µg/mL]	MIC (E.faecalis 6) [µg/mL]	MIC (H.influenzae 1) [µg/mL]	MIC (K.pneumoniae 418) [µg/mL]	MIC (L.monocytogenes BK23) [µg/mL]	MIC (M.catarrhalis RA21) [µg/mL]	MIC (M.morganii 6H-137) [µg/mL]	MIC (N.meningitidis 69480) [µg/mL]	MIC (P.aeruginosa 27853) [µg/mL]	MIC (P.mirabilis 2117) [µg/mL]	MIC (P.vulgaris 1028) [µg/mL]	MIC (S.agalactiae QK44) [µg/mL]	MIC (S.aureus 6538) [µg/mL]	MIC (S.aureus 734 MRSA) [µg/mL]	MIC (S.marcescens 69438) [µg/mL]	other results
Nc1nc(/C(=N/O)C(=O)N[C@@H]2C(=O)N3C(C(=O)O)=C(/C=C4\CCN(CC5CC5)C4=O)CS[C@H]23)cs1 [N, [6R-[3(E),6α,7β(Z)]]-7-[[(2-Amino-4-thiazolyl)(hydroxyimino)acetyl]-amino]-3-[[1-cyclopropylmethyl-2-oxo-3-pyrrolidinylidene]methyl]-8-oxo-5-thia-1-azabicyclo[4.2.0]oct-2-ene-2-carboxylic acid]	16 (≈ 30.9 µM)	4 (≈ 7.71 µM)	0.12 (≈ 0.231 µM)	8 (≈ 15.4 µM)	1 (≈ 1.93 µM)	≤ 0.06	1 (≈ 1.93 µM)	0.25 (≈ 0.482 µM)	0.12 (≈ 0.231 µM)	4 (≈ 7.71 µM)	8 (≈ 15.4 µM)	≤ 0.06	0.25 (≈ 0.482 µM)	16 (≈ 30.9 µM)	≤ 0.06	0.25 (≈ 0.482 µM)	0.5 (≈ 0.964 µM)	0.5 (≈ 0.964 µM)	8 (≈ 15.4 µM)	0.5 (≈ 0.964 µM)	MIC (S.pneumoniae Q19): ≤ 0.06 µg/mL; MIC (S.pyogenes B15): ≤ 0.06 µg/mL; MIC (S.viridans group 016): 1 µg/mL (≈ 1.93 µM); MIC (X.maltophilia 1AC739): > 32 µg/mL
C#CCN1CC/C(=C\C2=C(C(=O)O)N3C(=O)[C@@H](NC(=O)/C(=N\O)c4csc(N)n4)[C@H]3SC2)C1=O [O, [6R-[3(E),6α,7β(Z)]]-7-[[(2-Amino-4-thiazolyl)(hydroxyimino)acetyl]-amino]-8-oxo-3-[[2-oxo-1-(2-propynyl)-3-pyrrolidinylidene]methyl]-5-thia-1-azabicyclo [4.2.0]-oct-2-ene-2-carboxylic acid]	16 (≈ 31.8 µM)	4 (≈ 7.96 µM)	0.12 (≈ 0.239 µM)	16 (≈ 31.8 µM)	1 (≈ 1.99 µM)	≤ 0.06	2 (≈ 3.98 µM)	0.25 (≈ 0.497 µM)	0.12 (≈ 0.239 µM)	2 (≈ 3.98 µM)	4 (≈ 7.96 µM)	≤ 0.06	0.25 (≈ 0.497 µM)	8 (≈ 15.9 µM)	≤ 0.06	8 (≈ 15.9 µM)	0.25 (≈ 0.497 µM)	1 (≈ 1.99 µM)	4 (≈ 7.96 µM)	1 (≈ 1.99 µM)	MIC (S.pneumoniae Q19): ≤ 0.06 µg/mL; MIC (S.pyogenes B15): ≤ 0.06 µg/mL; MIC (S.viridans group 016): 0.5 µg/mL (≈ 0.995 µM); MIC (X.maltophilia 1AC739): > 32 µg/mL
Nc1nc(/C(=N/O)C(=O)N[C@@H]2C(=O)N3C(C(=O)O)=C(/C=C4\CCN(c5cnccn5)C4=O)CS[C@H]23)cs1 [P]	32 (≈ 59 µM)	2 (≈ 3.69 µM)	0.12 (≈ 0.221 µM)	8 (≈ 14.7 µM)	0.25 (≈ 0.461 µM)	≤ 0.06	0.5 (≈ 0.922 µM)	0.5 (≈ 0.922 µM)	0.25 (≈ 0.461 µM)	4 (≈ 7.37 µM)	8 (≈ 14.7 µM)	≤ 0.06	0.5 (≈ 0.922 µM)	8 (≈ 14.7 µM)	0.12 (≈ 0.221 µM)	4 (≈ 7.37 µM)	0.5 (≈ 0.922 µM)	0.5 (≈ 0.922 µM)	8 (≈ 14.7 µM)	4 (≈ 7.37 µM)	MIC (S.pneumoniae Q19): 0.12 µg/mL (≈ 0.221 µM); MIC (S.pyogenes B15): ≤ 0.06 µg/mL; MIC (S.viridans group 016): 1 µg/mL (≈ 1.84 µM); MIC (X.maltophilia 1AC739): > 32 µg/mL

Source: patent EP0620225B1, “Cephalosporin derivatives” (Basilea Pharmaceutica AG, priority 1993, dated 1994)
